Read-outs that look alike come from different tables or passages of the source.
Molecular target: purified recombinant human FGFR2 protein (Homo sapiens (Human), UniProt P21802)
Experiment: Measurement of inhibitory effect on FGFR2 kinase activity
Format: biochemical
Protocol: Measurement of Inhibitory Effect on FGFR2 Kinase Activity
EDTA (final concentration: 30 mM) diluted with a separation buffer (Caliper Life Sciences, Inc.) was added thereto to terminate the kinase reaction. […] The level of phosphorylation was determined from the quantitative ratio.

Chain of purified recombinant human FGFR2 protein (P21802 22-821): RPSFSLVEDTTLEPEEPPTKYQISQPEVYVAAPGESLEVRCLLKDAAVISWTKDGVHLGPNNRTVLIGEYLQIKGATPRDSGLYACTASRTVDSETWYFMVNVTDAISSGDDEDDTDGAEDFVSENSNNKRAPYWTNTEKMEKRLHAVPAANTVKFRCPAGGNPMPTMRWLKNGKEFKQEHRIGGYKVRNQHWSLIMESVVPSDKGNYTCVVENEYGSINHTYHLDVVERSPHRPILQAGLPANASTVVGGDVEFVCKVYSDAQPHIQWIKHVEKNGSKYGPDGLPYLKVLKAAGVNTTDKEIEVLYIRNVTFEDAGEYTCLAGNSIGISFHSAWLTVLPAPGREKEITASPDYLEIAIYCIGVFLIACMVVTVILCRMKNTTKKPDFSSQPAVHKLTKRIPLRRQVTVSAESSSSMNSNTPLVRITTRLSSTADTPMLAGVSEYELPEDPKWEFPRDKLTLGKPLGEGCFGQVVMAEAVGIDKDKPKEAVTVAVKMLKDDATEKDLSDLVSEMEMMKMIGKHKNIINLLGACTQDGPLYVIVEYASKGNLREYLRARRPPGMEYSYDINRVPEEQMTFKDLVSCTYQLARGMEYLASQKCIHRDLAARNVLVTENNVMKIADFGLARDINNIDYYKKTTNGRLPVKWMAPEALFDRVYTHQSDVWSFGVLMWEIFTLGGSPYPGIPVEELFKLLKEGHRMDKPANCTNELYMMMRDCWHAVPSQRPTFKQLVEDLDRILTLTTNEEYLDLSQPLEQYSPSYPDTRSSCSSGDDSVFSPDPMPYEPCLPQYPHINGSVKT

SMILES	IC50	IC50 (FGFR2 kinase, FL-Peptide 22 substrate, ATP 75 μM, 25° C. for 120 minutes)
C=CC(=O)N1C[C@@H](n2cc(C#Cc3cc(OC)cc(OC)c3)c3c(N)ncnc32)C[C@H]1C(=O)OC [Ex. Compound 66, (2S,4S)-methyl 1-acryloyl-4-(4-amino-5-((3,5-dimethoxyphenyl)ethynyl)-7H-pyrrolo[2,3-d]pyrimidin-7-yl)pyrrolidine-2-carboxylate]	< 0.0003 µM	–
CC(C)c1cc(C#Cc2nn([C@H]3CCN(C(=O)/C=C/CN(C)C)C3)c3ncnc(N)c23)cc(C(C)C)c1 [Ref. Ex. Compound 4, (S)-1-(3-(4-amino-3-((3,5-diisopropylphenyl)ethynyl)-1H-pyrazolo[3,4-d]pyrimidin-1-yl)pyrrolidin-1-yl)-4-(dimethylamino)but-2-en-1-one]	–	> 10 µM

Reference: patent US9108973B2, “3,5-disubstituted alkynylbenzene compound and salt thereof” (Taiho Pharmaceutical Co., Ltd., priority 2012, dated 2015)
